Data as given in ChEMBL document CHEMBL5335794, “Discovery of novel multifunctional ligands targeting GABA transporters, butyrylcholinesterase, β-secretase, and amyloid β aggregation as potential treatment of Alzheimer's disease” (Eur J Med Chem, 2023).
pIC50, pKi: −log10 of the molar value.

Assays:
[1] = target: Amyloid-beta precursor protein (Homo sapiens) (UniProt P05067); assay: Inhibition of amyloid beta40 (unknown origin) aggregation at 10 uM measured every 5 mins by ThT fluorescence based assay relative to control
Chain of Amyloid-beta precursor protein (Homo sapiens) (P05067 whole entry): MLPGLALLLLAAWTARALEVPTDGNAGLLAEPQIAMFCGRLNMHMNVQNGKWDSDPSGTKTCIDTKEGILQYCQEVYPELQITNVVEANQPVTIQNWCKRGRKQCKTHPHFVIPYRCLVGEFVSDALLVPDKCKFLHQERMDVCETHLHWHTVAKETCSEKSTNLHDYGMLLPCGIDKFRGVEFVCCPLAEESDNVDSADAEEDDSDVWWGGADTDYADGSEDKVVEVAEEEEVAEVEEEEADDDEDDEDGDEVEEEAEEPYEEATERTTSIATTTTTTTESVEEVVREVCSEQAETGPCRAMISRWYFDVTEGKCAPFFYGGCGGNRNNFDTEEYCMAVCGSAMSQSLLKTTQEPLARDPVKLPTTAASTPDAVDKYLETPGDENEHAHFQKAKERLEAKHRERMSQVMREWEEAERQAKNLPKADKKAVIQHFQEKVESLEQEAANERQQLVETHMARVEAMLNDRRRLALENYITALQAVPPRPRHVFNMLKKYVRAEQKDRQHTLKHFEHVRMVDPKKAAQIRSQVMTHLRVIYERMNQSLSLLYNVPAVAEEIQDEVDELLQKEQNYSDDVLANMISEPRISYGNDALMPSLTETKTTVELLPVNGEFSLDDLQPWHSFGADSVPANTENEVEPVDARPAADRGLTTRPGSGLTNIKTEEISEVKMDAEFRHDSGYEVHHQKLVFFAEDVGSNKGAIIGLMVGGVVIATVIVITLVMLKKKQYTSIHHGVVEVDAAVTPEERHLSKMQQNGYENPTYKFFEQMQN

[2] = Inhibition of mouse GAT3 transfected in HEK293 cells assessed as reduction in [3H]-GABA uptake preincubated for 25 mins followed by [3H]-GABA addition and measured after 4 mins by liquid scintillation counting analysis; assay type: cell-based; settings: HEK293; for IC50: read-out: pIC50 (converted)
[3] = target: Amyloid-beta precursor protein (Homo sapiens) (UniProt P05067); assay: Inhibition of amyloid beta42 (unknown origin) aggregation expressed in Escherichia coli BL21 (DE3) at 10 uM measured every 5 mins by ThT fluorescence based assay relative to control
[4] = target: T1, Sodium- and chloride-dependent GABA transporter 1 (Mus musculus, UniProt P31648); assay: Inhibition of NO 711 marker binding to mouse GAT1 by LC-ESI-MS/MS based competitive MS binding assay
[5] = target: T2, GABA transporter 4 (Mus musculus, UniProt P31650); assay: Inhibition of mouse GAT4 transfected in HEK293 cells assessed as reduction in [3H]-GABA uptake preincubated for 25 mins followed by [3H]-GABA addition and measured after 4 mins by liquid scintillation counting analysis; assay type: cell-based; settings: for IC50: read-out: pIC50 (converted)
T2 sequence (P31650 whole entry): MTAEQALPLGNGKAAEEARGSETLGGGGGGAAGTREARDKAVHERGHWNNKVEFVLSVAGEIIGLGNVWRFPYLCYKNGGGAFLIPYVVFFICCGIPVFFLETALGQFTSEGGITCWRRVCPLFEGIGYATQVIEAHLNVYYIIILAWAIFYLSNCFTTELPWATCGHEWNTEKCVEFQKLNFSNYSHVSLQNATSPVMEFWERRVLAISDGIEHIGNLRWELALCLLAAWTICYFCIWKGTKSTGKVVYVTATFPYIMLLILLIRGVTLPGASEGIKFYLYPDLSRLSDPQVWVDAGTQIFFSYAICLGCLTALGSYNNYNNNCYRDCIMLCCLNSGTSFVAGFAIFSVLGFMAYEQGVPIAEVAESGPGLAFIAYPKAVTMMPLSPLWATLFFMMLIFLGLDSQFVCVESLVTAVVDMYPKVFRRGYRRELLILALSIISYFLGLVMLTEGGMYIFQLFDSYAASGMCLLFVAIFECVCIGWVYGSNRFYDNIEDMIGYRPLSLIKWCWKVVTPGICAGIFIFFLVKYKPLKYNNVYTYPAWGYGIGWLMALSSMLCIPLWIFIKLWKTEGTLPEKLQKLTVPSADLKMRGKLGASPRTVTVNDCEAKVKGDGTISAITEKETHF

[6] = target: Acetylcholinesterase (Electrophorus electricus) (UniProt O42275); assay: Inhibition of electric eel AChE using acetylthiocholine iodide as substrate at 10 uM preincubated for 5 mins followed by substrate addition and measured after 5 mins by DTNB reagent based Ellman's method relative to control; settings: time 10.0 min
Chain of Acetylcholinesterase (Electrophorus electricus) (O42275 24-633 limits assumed): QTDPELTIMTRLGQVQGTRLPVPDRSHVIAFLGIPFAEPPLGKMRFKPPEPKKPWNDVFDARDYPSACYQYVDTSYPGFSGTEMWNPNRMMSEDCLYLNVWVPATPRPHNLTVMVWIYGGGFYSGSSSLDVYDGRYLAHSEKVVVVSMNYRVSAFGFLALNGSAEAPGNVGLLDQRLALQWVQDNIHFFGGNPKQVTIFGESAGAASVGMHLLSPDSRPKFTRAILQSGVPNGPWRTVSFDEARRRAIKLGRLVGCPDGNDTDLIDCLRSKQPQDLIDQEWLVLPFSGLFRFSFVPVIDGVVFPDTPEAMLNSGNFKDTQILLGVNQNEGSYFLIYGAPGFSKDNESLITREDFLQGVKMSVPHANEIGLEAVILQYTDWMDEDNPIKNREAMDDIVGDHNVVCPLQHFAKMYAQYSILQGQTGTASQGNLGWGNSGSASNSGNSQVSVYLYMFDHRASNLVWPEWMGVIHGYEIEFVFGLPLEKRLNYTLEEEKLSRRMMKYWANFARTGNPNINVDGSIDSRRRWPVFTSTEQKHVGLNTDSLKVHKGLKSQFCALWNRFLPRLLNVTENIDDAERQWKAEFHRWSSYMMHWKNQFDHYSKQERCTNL

[7] = target: T1, Sodium- and chloride-dependent GABA transporter 1; assay: Inhibition of mouse GAT1 transfected in HEK293 cells assessed as reduction in [3H]-GABA uptake preincubated for 25 mins followed by [3H]-GABA addition and measured after 4 mins by liquid scintillation counting analysis; assay type: cell-based; settings: for IC50: read-out: pIC50 (converted)
[8] = target: T3, GABA transporter 2 (Mus musculus, UniProt P31651); assay: Inhibition of mouse GAT2 transfected in HEK293 cells assessed as reduction in [3H]-GABA uptake preincubated for 25 mins followed by [3H]-GABA addition and measured after 10 mins by liquid scintillation counting analysis; assay type: cell-based; settings: for IC50: read-out: pIC50 (converted)
T3 sequence (P31651 whole entry): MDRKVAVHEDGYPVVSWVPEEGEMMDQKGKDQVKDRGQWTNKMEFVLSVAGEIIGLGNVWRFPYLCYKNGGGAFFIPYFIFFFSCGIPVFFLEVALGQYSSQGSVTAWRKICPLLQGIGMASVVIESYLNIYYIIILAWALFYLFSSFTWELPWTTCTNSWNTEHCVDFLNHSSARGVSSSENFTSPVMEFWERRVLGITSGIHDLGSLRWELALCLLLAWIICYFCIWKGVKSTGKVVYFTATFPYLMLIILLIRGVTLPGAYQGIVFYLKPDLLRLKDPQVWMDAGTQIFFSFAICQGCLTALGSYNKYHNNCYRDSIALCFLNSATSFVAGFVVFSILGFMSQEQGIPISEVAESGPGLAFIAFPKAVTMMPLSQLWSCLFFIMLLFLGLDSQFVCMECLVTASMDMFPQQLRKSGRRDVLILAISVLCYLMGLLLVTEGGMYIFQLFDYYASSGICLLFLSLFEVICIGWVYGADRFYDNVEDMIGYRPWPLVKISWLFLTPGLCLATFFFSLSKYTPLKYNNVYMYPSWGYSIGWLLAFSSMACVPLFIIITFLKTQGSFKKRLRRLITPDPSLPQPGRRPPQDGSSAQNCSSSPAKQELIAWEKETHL

[9] = target: Cholinesterase (Equus caballus, UniProt P81908)
Chain of Cholinesterase (P81908 whole entry): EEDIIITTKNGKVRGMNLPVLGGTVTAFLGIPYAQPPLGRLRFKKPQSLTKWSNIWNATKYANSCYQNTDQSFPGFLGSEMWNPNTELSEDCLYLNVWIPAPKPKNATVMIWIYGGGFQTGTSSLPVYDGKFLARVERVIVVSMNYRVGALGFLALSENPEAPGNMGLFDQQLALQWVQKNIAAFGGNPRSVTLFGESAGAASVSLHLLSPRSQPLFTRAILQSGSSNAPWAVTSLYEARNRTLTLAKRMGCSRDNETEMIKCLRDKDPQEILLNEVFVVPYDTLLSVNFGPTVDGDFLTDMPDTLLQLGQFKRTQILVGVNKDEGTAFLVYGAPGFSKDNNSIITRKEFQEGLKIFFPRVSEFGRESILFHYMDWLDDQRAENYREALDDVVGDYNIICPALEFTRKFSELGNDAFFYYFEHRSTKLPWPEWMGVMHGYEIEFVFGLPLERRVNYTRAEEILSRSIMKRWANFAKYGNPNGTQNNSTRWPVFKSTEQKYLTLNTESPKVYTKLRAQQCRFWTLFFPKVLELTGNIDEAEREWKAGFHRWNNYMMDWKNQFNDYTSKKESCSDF
Description: Inhibition of equine serum BuChE using butyrylthiocholine iodide as substrate preincubated for 5 mins followed by substrate addition and measured after 5 mins by DTNB reagent based Ellman's method

[10] = target: T4, Beta-secretase 1 (Homo sapiens, UniProt P56817); settings: dose 50.0 µM, time 60.0 min
T4 sequence (P56817 whole entry): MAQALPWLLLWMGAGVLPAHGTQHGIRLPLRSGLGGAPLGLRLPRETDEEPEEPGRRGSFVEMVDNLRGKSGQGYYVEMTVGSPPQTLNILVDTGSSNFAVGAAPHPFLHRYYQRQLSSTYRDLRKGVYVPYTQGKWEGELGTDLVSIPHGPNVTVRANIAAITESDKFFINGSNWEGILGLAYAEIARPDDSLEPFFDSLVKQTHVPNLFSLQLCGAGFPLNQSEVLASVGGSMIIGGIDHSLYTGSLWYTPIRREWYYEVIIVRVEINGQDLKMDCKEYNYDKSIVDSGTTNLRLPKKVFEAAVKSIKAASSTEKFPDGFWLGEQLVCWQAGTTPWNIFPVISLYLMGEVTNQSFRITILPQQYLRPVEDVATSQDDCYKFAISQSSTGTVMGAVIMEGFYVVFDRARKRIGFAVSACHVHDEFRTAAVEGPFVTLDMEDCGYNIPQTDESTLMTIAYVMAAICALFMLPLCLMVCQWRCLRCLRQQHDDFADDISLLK

[11] = target: T4, Beta-secretase 1
[12] = target: T2, GABA transporter 4
[13] = target: T1, Sodium- and chloride-dependent GABA transporter 1
[14] = target: T3, GABA transporter 2
[15] = target: T5, GABA transporter 2 (Mus musculus) (UniProt P31651); assay: Inhibition of mouse GAT2 transfected in HEK293 cells assessed as reduction in [3H]-GABA uptake by measuring residual activity at 100 uM preincubated for 25 mins followed by [3H]-GABA addition and measured after 10 mins by liquid scintillation counting analysis relative to control; assay type: cell-based; settings: time 35.0 min
T5 sequence (whole entry): T3 sequence (P31651 whole entry)

[16] = target: Sodium- and chloride-dependent GABA transporter 1 (Mus musculus) (UniProt P31648); assay: Inhibition of NO 711 marker binding to mouse GAT1 assessed as residual activity at 100 uM by LC-ESI-MS/MS based competitive MS binding assay relative to control
[17] = target: Cholinesterase (Equus caballus) (UniProt P81908); assay: Inhibition of equine serum BuChE using butyrylthiocholine iodide as substrate at 10 uM preincubated for 5 mins followed by substrate addition and measured after 5 mins by DTNB reagent based Ellman's method relative to control; settings: time 10.0 min
Chain of Cholinesterase (Equus caballus) (P81908 whole entry): as the sequence (P81908 whole entry) above

[18] = target: Sodium- and chloride-dependent GABA transporter 1 (Mus musculus) (UniProt P31648); assay: Inhibition of mouse GAT1 transfected in HEK293 cells assessed as reduction in [3H]-GABA uptake by measuring residual activity at 100 uM preincubated for 25 mins followed by [3H]-GABA addition and measured after 4 mins by liquid scintillation counting analysis relative to control; assay type: cell-based; settings: time 29.0 min
[19] = target: T6, GABA transporter 4 (Mus musculus) (UniProt P31650); assay: Inhibition of mouse GAT4 transfected in HEK293 cells assessed as reduction in [3H]-GABA uptake by measuring residual activity at 100 uM preincubated for 25 mins followed by [3H]-GABA addition and measured after 4 mins by liquid scintillation counting analysis relative to control; assay type: cell-based; settings: time 29.0 min
T6 sequence (whole entry): T2 sequence (P31650 whole entry)

Row | SMILES | IC50 [2] | pKi [4] | IC50 [5] | inhibition [6] | IC50 [7] | pIC50 [9] | Activity [15] | further results
1 | CN(CCOCCn1c2ccccc2c2ccccc21)C(CCN)C(=O)NCc1ccccc1Cl (stereo not given) | 12.9 µM | 4.03 | 9.33 µM | < 10% | 19.5 µM | 6.69 |  | inhibition [1]: 92.4%; inhibition [3]: 30.2%; IC50 [8]: 8.32 µM; inhibition [10]: 79%
2 | CN(CCOCCN1c2ccccc2Sc2ccccc21)C(CCN)C(=O)NCc1ccccc1Cl (stereo not given) | 6.17 µM | 4.24 | 8.71 µM | 14% | 12.6 µM | 6.39 |  | inhibition [1]: 74%; inhibition [3]: 27.1%; pIC50 [11]: 5.29; IC50 [8]: 6.61 µM
3 | CN(CCC=C(c1ccccc1)c1ccccc1)C(CO)C(=O)NCc1ccccc1Cl (stereo not given) |  |  |  |  |  |  |  | pIC50 [12]: 5.00; pIC50 [13]: 4.72; pIC50 [14]: 4.89
4 | CC(CC(=O)O)NCCOCCN1c2ccccc2Sc2ccccc21 (stereo not given) |  |  |  |  |  |  |  | pIC50 [13]: 5.05
5 | O=C(O)[C@@H]1CCCN(CCOCCN2c3ccccc3Sc3ccccc32)C1 |  |  |  |  |  |  |  | pIC50 [13]: 6.52
6 | CN(CC/C=C/c1ccccc1-c1ccc(Cl)cc1Cl)C(CCN)C(=O)NCc1ccccc1 (stereo not given) | 6.61 µM | 4.55 | 7.41 µM |  |  | 5.84 | 18% | pIC50 [11]: 5.27; pIC50 ([7]; read-out: IC50): 5.26
7 | O=C(NC1CCN(C(c2ccccc2)c2ccccc2)CC1)C1CC2c3ccccc3NC2CN1 (stereo not given) |  |  |  | < 10% |  |  | 57% | Activity [16]: 73%; inhibition [17]: < 10%; Activity [18]: 87%; Activity [19]: 89%
8 | CN(CCC=C(c1ccccc1)c1ccccc1)C(=O)C1Cc2c([nH]c3ccccc23)CN1 (stereo not given) | 4.07 µM | 4.10 |  | 38% | 12 µM | 5.50 | 55% | pIC50 ([2]; read-out: IC50): 5.39; pIC50 ([5]; read-out: IC50): 5.20
9 | CN(CCOCCN1c2ccccc2Sc2ccccc21)C(CCN)C(=O)NCc1ccc(F)cc1 (stereo not given) | 8.32 µM | 4.11 | 14.1 µM | < 10% | 14.8 µM | 5.99 |  | inhibition [1]: 74.7%; inhibition [3]: 23.9%; pIC50 [11]: 5.27; IC50 [8]: 10.2 µM
10 | CN(CCOCCN1c2ccccc2Sc2ccccc21)C(CCO)C(=O)NCc1ccc(Cl)cc1 (stereo not given) | 7.94 µM |  | 20.9 µM | < 10% |  | 5.37 | 55% | Activity [16]: 96%; Activity [18]: 57%; inhibition [10]: 44%
11 | CN(CC/C=C/c1ccccc1-c1ccc(Cl)cc1Cl)C(CCO)C(=O)NCc1ccccc1 (stereo not given) | 7.76 µM |  | 7.41 µM |  |  |  | 13% | Activity [16]: 49%; inhibition [17]: 47%; Activity [18]: 45%; inhibition [10]: 52%
12 | CN(CCC=C(c1ccccc1)c1ccccc1)C(CN)C(=O)NCc1ccccc1Cl (stereo not given) |  |  |  |  |  |  |  | pIC50 [12]: 5.05; pIC50 [13]: 4.89; pIC50 [14]: 5.22
13 | Cc1ccsc1C(=CCCN(C)[C@H]1CCCC[C@H]1C(=O)O)c1sccc1C |  |  |  |  |  |  |  | pIC50 [14]: 4.68
14 | CN(CCOCCN1c2ccccc2Sc2ccccc21)C(CCN)C(=O)NCc1ccccc1 (stereo not given) | 10 µM | 4.17 | 15.1 µM | < 10% | 15.8 µM | 6.46 |  | inhibition [1]: 96.7%; inhibition [3]: 34.9%; pIC50 [11]: 4.64; pIC50 ([8]; read-out: IC50): 5.52
